Key:
Type in all cases: in vivo
[1] = system: barnyardgrass (Echinochloa crus-galli); experiment: Test A preemergence, barnyardgrass; details: 0 to 100 scale (0 no effect, 100 complete control)
How it was run: (§1)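 Ratings use a 0–100 scale, where 0 means no effect and 100 means complete control, and come from visual comparison with untreated plants roughly 10 days after treatment. Compounds were applied in a surfactant-containing, non-phytotoxic solvent, either to soil after seeding or to foliage of small seedlings.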

[2] = system: rice (Oryza sativa); experiment: Test B flooded paddy test, rice; details: 500 g ai/ha, applied to paddy water, visual rating after 13 to 15 days, scale 0 (no effect) to 100 (complete control)
How it was run: (§2)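 Under a constant 3 cm flood, test compounds went directly into the paddy water. Following 13 to 15 days of greenhouse growth, treated species and controls were compared by eye.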

[3] = system: barnyardgrass (Echinochloa crus-galli); experiment: Test B flooded paddy test, barnyardgrass; details: 500 g ai/ha, applied to paddy water, visual rating after 13 to 15 days, scale 0 (no effect) to 100 (complete control)
How it was run: as §2

[4] = system: kochia (Kochia scoparia); experiment: Test A postemergence, kochia; details: visual injury, 0 to 100 scale (0 no effect, 100 complete control), approximately 10 days
How it was run: as §1

[5] = system: barnyardgrass (Echinochloa crus-galli); experiment: Test A postemergence, barnyardgrass; details: visual injury, 0 to 100 scale (0 no effect, 100 complete control), approximately 10 days
How it was run: as §1

[6] = system: sedge, umbrella (small-flower umbrella sedge, Cyperus difformis); experiment: Test B flooded paddy test, umbrella sedge; details: 500 g ai/ha, applied to paddy water, visual rating after 13 to 15 days, scale 0 (no effect) to 100 (complete control)
How it was run: as §2

[7] = system: foxtail, giant (Setaria faberii); experiment: Test A postemergence, giant foxtail; details: visual injury, 0 to 100 scale (0 no effect, 100 complete control), approximately 10 days
How it was run: as §1

[8] = system: pigweed (Amaranthus retroflexus); experiment: Test A postemergence, pigweed; details: visual injury, 0 to 100 scale (0 no effect, 100 complete control), approximately 10 days
How it was run: as §1

[9] = system: wheat (Triticum aestivum); experiment: Test A postemergence, wheat; details: visual injury, 0 to 100 scale (0 no effect, 100 complete control), approximately 10 days
How it was run: as §1

[10] = system: pigweed (Amaranthus retroflexus); experiment: Test A preemergence, pigweed; details: 0 to 100 scale (0 no effect, 100 complete control)
How it was run: as §1

[11] = system: ragweed (common ragweed, Ambrosia elatior); experiment: Test A preemergence, ragweed; details: 0 to 100 scale (0 no effect, 100 complete control)
How it was run: as §1

[12] = system: kochia (Kochia scoparia); experiment: Test A preemergence, kochia; details: 0 to 100 scale (0 no effect, 100 complete control)
How it was run: as §1

[13] = system: ryegrass, Italian (Lolium multiflorum); experiment: Test A preemergence, Italian ryegrass; details: 0 to 100 scale (0 no effect, 100 complete control)
How it was run: as §1

[14] = system: foxtail, giant (Setaria faberii); experiment: Test A preemergence, giant foxtail; details: 0 to 100 scale (0 no effect, 100 complete control)
How it was run: as §1

[15] = system: ducksalad (Heteranthera limosa); experiment: Test B flooded paddy test, ducksalad; details: 500 g ai/ha, applied to paddy water, visual rating after 13 to 15 days, scale 0 (no effect) to 100 (complete control)
How it was run: as §2

[16] = system: ragweed (common ragweed, Ambrosia elatior); experiment: Test A postemergence, ragweed; details: visual injury, 0 to 100 scale (0 no effect, 100 complete control), approximately 10 days
How it was run: as §1

[17] = system: blackgrass (Alopecurus myosuroides); experiment: Test A postemergence, blackgrass; details: visual injury, 0 to 100 scale (0 no effect, 100 complete control), approximately 10 days
How it was run: as §1

[18] = system: corn (Zea mays); experiment: Test A postemergence, corn; details: visual injury, 0 to 100 scale (0 no effect, 100 complete control), approximately 10 days
How it was run: as §1

[19] = system: ryegrass, Italian (Lolium multiflorum); experiment: Test A postemergence, Italian ryegrass; details: visual injury, 0 to 100 scale (0 no effect, 100 complete control), approximately 10 days
How it was run: as §1

[20] = system: galium (catchweed bedstraw, Galium aparine); experiment: Test A postemergence, galium; details: visual injury, 0 to 100 scale (0 no effect, 100 complete control), approximately 10 days
How it was run: as §1

Row | SMILES | Plant response rating, Barnyardgrass ([1]; 125 g ai/ha) | Plant response rating, Barnyardgrass ([1]; 500 g ai/ha) | Plant response rating, Rice (Flood) [2] | Plant response rating, Barnyardgrass (Flood) [3] | Plant response rating, Kochia ([4]; 125 g ai/ha) | Plant response rating, Kochia ([4]; 500 g ai/ha) | Plant response rating, Barnyardgrass ([5]; 125 g ai/ha) | Plant response rating, Barnyardgrass ([5]; 500 g ai/ha) | Plant response rating, Sedge, Umbrella (Flood) [6] | Plant response rating, Foxtail, Giant ([7]; 125 g ai/ha) | Plant response rating, Foxtail, Giant ([7]; 500 g ai/ha) | Plant response rating, Pigweed ([8]; 125 g ai/ha) | Plant response rating, Pigweed ([8]; 500 g ai/ha) | Plant response rating, Wheat ([9]; 125 g ai/ha) | Plant response rating, Wheat ([9]; 500 g ai/ha) | Plant response rating, Pigweed ([10]; 125 g ai/ha) | Plant response rating, Pigweed ([10]; 500 g ai/ha) | Plant response rating, Ragweed ([11]; 125 g ai/ha) | Plant response rating, Ragweed ([11]; 500 g ai/ha) | Plant response rating, Kochia ([12]; 125 g ai/ha) | other results
1 | O=C1NCC(c2cccc(Cn3ccc(C(F)(F)F)n3)c2)C1C(=O)Nc1ccccc1F (stereo not drawn) [Compound 23] | 0 | 20 | 0 | 0 | 0 | 0 | 0 | 30 | 0 | 0 | 20 | 0 | 0 | 0 | 0 | 0 | 0 | 0 | 0 | 0 | Plant response rating, Kochia ([12]; 500 g ai/ha): 20; Plant response rating, Ryegrass, Italian ([13]; 125 g ai/ha): 0; Plant response rating, Ryegrass, Italian ([13]; 500 g ai/ha): 0; Plant response rating, Foxtail, Giant ([14]; 125 g ai/ha): 20; Plant response rating, Foxtail, Giant ([14]; 500 g ai/ha): 50; Plant response rating, Ducksalad (Flood) [15]: 0; Plant response rating, Ragweed ([16]; 125 g ai/ha): 0; Plant response rating, Ragweed ([16]; 500 g ai/ha): 0; Plant response rating, Blackgrass ([17]; 125 g ai/ha): 0; Plant response rating, Blackgrass ([17]; 500 g ai/ha): 0; Plant response rating, Corn ([18]; 125 g ai/ha): 0; Plant response rating, Corn ([18]; 500 g ai/ha): 0; Plant response rating, Ryegrass, Italian ([19]; 125 g ai/ha): 0; Plant response rating, Ryegrass, Italian ([19]; 500 g ai/ha): 0; Plant response rating, Galium ([20]; 125 g ai/ha): 0; Plant response rating, Galium ([20]; 500 g ai/ha): 0
2 | O=C1NCC(c2cccc(Cn3ccc(C(F)(F)F)n3)c2)C1C(=O)Nc1ccc(F)cc1F (stereo not drawn) [Compound 24] | 0 | 0 | 0 | 0 | 0 | 0 | 0 | 0 | 0 | 0 | 0 | 0 | 0 | 0 | 0 | 0 | 0 | 0 | 0 | 0 | Plant response rating, Kochia ([12]; 500 g ai/ha): 0; Plant response rating, Ryegrass, Italian ([13]; 125 g ai/ha): 0; Plant response rating, Ryegrass, Italian ([13]; 500 g ai/ha): 0; Plant response rating, Foxtail, Giant ([14]; 125 g ai/ha): 0; Plant response rating, Foxtail, Giant ([14]; 500 g ai/ha): 0; Plant response rating, Ducksalad (Flood) [15]: 0; Plant response rating, Ragweed ([16]; 125 g ai/ha): 0; Plant response rating, Ragweed ([16]; 500 g ai/ha): 0; Plant response rating, Blackgrass ([17]; 125 g ai/ha): 0; Plant response rating, Blackgrass ([17]; 500 g ai/ha): 0; Plant response rating, Corn ([18]; 125 g ai/ha): 0; Plant response rating, Corn ([18]; 500 g ai/ha): 0; Plant response rating, Ryegrass, Italian ([19]; 125 g ai/ha): 0; Plant response rating, Ryegrass, Italian ([19]; 500 g ai/ha): 0; Plant response rating, Galium ([20]; 125 g ai/ha): 0; Plant response rating, Galium ([20]; 500 g ai/ha): 0
